# Assay results from PubChem BioAssay AID504473 (NMMLSC, 2011).
# Calls of active or inactive are those of the source.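 How the source made its calls: active means GFP ratio to DMSO above 1.5 or below 0.66; inactive means the rest.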
# Tests used:
# Test in all cases: TOR pathway GFP reporter clone modulation in yeast – S. cerevisiae, GFP-tagged clone panel, flow cytometry (AID 504473);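 further: median GFP fluorescence of the cells measured by high-throughput flow cytometry; test concentration not given here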
# YBR208C = settings: S. cerevisiae GFP-tagged strains, 3 h
# YCL064C = settings: S. cerevisiae GFP-tagged strains, 3 h
# YNL015W = settings: S. cerevisiae GFP-tagged strains, 3 h
# YDR070C = settings: S. cerevisiae GFP-tagged strains, 3 h
# YHR144C = settings: S. cerevisiae GFP-tagged strains, 3 h
# YKL103C = settings: S. cerevisiae GFP-tagged strains, 3 h
# YKL119C = settings: S. cerevisiae GFP-tagged strains, 3 h
# YIL043C = settings: S. cerevisiae GFP-tagged strains, 3 h
# YIL051C = settings: S. cerevisiae GFP-tagged strains, 3 h
# YOR182C = settings: S. cerevisiae GFP-tagged strains, 3 h
# YMR120C = settings: S. cerevisiae GFP-tagged strains, 3 h
# YER081W = settings: S. cerevisiae GFP-tagged strains, 3 h
# YER151C = settings: S. cerevisiae GFP-tagged strains, 3 h
# YLR367W = settings: S. cerevisiae GFP-tagged strains, 3 h
# YPL150W = settings: S. cerevisiae GFP-tagged strains, 3 h
# YCR005C = settings: S. cerevisiae GFP-tagged strains, 3 h
# YMR251W-A = settings: S. cerevisiae GFP-tagged strains, 3 h
# YOR371C = settings: S. cerevisiae GFP-tagged strains, 3 h
# YDR399W = settings: S. cerevisiae GFP-tagged strains, 3 h
# YEL007W = settings: S. cerevisiae GFP-tagged strains, 3 h
# YGL062W = settings: S. cerevisiae GFP-tagged strains, 3 h
# YGR019W = settings: S. cerevisiae GFP-tagged strains, 3 h
# YOR063W = settings: S. cerevisiae GFP-tagged strains, 3 h
# YPL265W = settings: S. cerevisiae GFP-tagged strains, 3 h
# YDL205C = settings: S. cerevisiae GFP-tagged strains, 3 h
# YPL111W = settings: S. cerevisiae GFP-tagged strains, 3 h
# YKR093W = settings: S. cerevisiae GFP-tagged strains, 3 h
# YDR382W = settings: S. cerevisiae GFP-tagged strains, 3 h
# YGL147C = settings: S. cerevisiae GFP-tagged strains, 3 h
# YKR039W = settings: S. cerevisiae GFP-tagged strains, 3 h
# YHR018C = settings: S. cerevisiae GFP-tagged strains, 3 h
# YLR237W = settings: S. cerevisiae GFP-tagged strains, 3 h
# YHR141C = settings: S. cerevisiae GFP-tagged strains, 3 h
# YPR145W = settings: S. cerevisiae GFP-tagged strains, 3 h
# YAL060W = settings: S. cerevisiae GFP-tagged strains, 3 h
# YJL144W = settings: S. cerevisiae GFP-tagged strains, 3 h
# YPR184W = settings: S. cerevisiae GFP-tagged strains, 3 h
# YBL087C = settings: S. cerevisiae GFP-tagged strains, 3 h
# YFR031C-A = settings: S. cerevisiae GFP-tagged strains, 3 h
# YDL204W = settings: S. cerevisiae GFP-tagged strains, 3 h
# YLR142W = settings: S. cerevisiae GFP-tagged strains, 3 h
# YPL131W = settings: S. cerevisiae GFP-tagged strains, 3 h
# YKR094C = settings: S. cerevisiae GFP-tagged strains, 3 h
# YDR453C = settings: S. cerevisiae GFP-tagged strains, 3 h
# YGL036W = settings: S. cerevisiae GFP-tagged strains, 3 h
# YMR307W = settings: S. cerevisiae GFP-tagged strains, 3 h
# YGR034W = settings: S. cerevisiae GFP-tagged strains, 3 h
# YMR105C = settings: S. cerevisiae GFP-tagged strains, 3 h
# YBR139W = settings: S. cerevisiae GFP-tagged strains, 3 h
# YOR136W = settings: S. cerevisiae GFP-tagged strains, 3 h
# YCR002C = settings: S. cerevisiae GFP-tagged strains, 3 h
# YHL021C = settings: S. cerevisiae GFP-tagged strains, 3 h
# YGR121C = settings: S. cerevisiae GFP-tagged strains, 3 h
# YLL026W = settings: S. cerevisiae GFP-tagged strains, 3 h
# YIL052C = settings: S. cerevisiae GFP-tagged strains, 3 h
# YGL135W = settings: S. cerevisiae GFP-tagged strains, 3 h
# YOR038C = settings: S. cerevisiae GFP-tagged strains, 3 h
# YHR087W = settings: S. cerevisiae GFP-tagged strains, 3 h
# YER156C = settings: S. cerevisiae GFP-tagged strains, 3 h
# YKL086W = settings: S. cerevisiae GFP-tagged strains, 3 h
# YNL142W = settings: S. cerevisiae GFP-tagged strains, 3 h
# YLR185W = settings: S. cerevisiae GFP-tagged strains, 3 h
# YML063W = settings: S. cerevisiae GFP-tagged strains, 3 h
# YNL068C = settings: S. cerevisiae GFP-tagged strains, 3 h
# YAL061W = settings: S. cerevisiae GFP-tagged strains, 3 h
# YBR072W = settings: S. cerevisiae GFP-tagged strains, 3 h
# YEL063C = settings: S. cerevisiae GFP-tagged strains, 3 h
# YBR248C = settings: S. cerevisiae GFP-tagged strains, 3 h
# YNL112W = settings: S. cerevisiae GFP-tagged strains, 3 h
# YLR058C = settings: S. cerevisiae GFP-tagged strains, 3 h
# YPL220W = settings: S. cerevisiae GFP-tagged strains, 3 h
# YEL071W = settings: S. cerevisiae GFP-tagged strains, 3 h
# YNR001C = settings: S. cerevisiae GFP-tagged strains, 3 h
# YJR148W = settings: S. cerevisiae GFP-tagged strains, 3 h
# YGR088W = settings: S. cerevisiae GFP-tagged strains, 3 h
# YHR203C = settings: S. cerevisiae GFP-tagged strains, 3 h
# YNL214W = settings: S. cerevisiae GFP-tagged strains, 3 h
# [1] = target: General amino acid permease AGP1 (Saccharomyces cerevisiae S288c) (UniProt P25376); settings: S. cerevisiae GFP-tagged strains, 3 h, YCL025C
# Sequence of General amino acid permease AGP1 (Saccharomyces cerevisiae S288c) (P25376 whole entry, looked up): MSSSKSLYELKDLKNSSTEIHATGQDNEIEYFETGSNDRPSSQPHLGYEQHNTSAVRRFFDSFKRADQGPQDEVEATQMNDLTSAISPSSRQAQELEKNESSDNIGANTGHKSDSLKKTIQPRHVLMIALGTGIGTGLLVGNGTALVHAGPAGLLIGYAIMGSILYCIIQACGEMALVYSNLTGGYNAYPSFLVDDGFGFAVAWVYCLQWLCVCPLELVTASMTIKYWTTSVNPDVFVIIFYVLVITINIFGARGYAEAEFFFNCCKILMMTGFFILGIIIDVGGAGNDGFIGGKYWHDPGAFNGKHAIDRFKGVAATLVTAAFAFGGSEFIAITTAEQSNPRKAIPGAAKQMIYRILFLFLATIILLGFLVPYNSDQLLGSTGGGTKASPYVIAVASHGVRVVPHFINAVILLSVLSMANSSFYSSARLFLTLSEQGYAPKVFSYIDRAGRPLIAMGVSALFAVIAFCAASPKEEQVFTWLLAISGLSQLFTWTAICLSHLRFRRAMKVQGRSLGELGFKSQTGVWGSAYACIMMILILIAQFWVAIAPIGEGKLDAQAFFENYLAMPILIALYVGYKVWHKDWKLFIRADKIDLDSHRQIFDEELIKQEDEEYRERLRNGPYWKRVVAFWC
# YML034W = settings: S. cerevisiae GFP-tagged strains, 3 h
# YER117W = settings: S. cerevisiae GFP-tagged strains, 3 h
# YOR173W = settings: S. cerevisiae GFP-tagged strains, 3 h
# YML026C = settings: S. cerevisiae GFP-tagged strains, 3 h
# YOR375C = settings: S. cerevisiae GFP-tagged strains, 3 h
# YLL039C = settings: S. cerevisiae GFP-tagged strains, 3 h
# YML004C = settings: S. cerevisiae GFP-tagged strains, 3 h
# YIL069C = settings: S. cerevisiae GFP-tagged strains, 3 h
# YLR109W = settings: S. cerevisiae GFP-tagged strains, 3 h
# YOL052C-A = settings: S. cerevisiae GFP-tagged strains, 3 h
# YIL066C = settings: S. cerevisiae GFP-tagged strains, 3 h
# YLR287C-A = settings: S. cerevisiae GFP-tagged strains, 3 h
# YML128C = settings: S. cerevisiae GFP-tagged strains, 3 h
# YPR132W = settings: S. cerevisiae GFP-tagged strains, 3 h
# YJL056C = settings: S. cerevisiae GFP-tagged strains, 3 h
# YEL060C = settings: S. cerevisiae GFP-tagged strains, 3 h
# YFR053C = settings: S. cerevisiae GFP-tagged strains, 3 h
# YDL130W = settings: S. cerevisiae GFP-tagged strains, 3 h
structure (smiles),measurement,setting,value
CNc1nc(N)c([N+](=O)[O-])c(Nc2cccc(F)c2)n1,GFP ratio to DMSO,YBR208C,2.34
same,GFP ratio to DMSO,YCL064C,1.15 (inactive)
same,GFP ratio to DMSO,YNL015W,1.62
same,GFP ratio to DMSO,YDR070C,2.45
same,GFP ratio to DMSO,YHR144C,0.778 (inactive)
same,GFP ratio to DMSO,YKL103C,2.2
same,GFP ratio to DMSO,YKL119C,0.959 (inactive)
same,GFP ratio to DMSO,YIL043C,1.04 (inactive)
same,GFP ratio to DMSO,YIL051C,1.3 (inactive)
same,GFP ratio to DMSO,YOR182C,0.657 (inactive)
same,GFP ratio to DMSO,YMR120C,0.686 (inactive)
same,GFP ratio to DMSO,YER081W,1.07 (inactive)
same,GFP ratio to DMSO,YER151C,1.03 (inactive)
same,GFP ratio to DMSO,YLR367W,0.896 (inactive)
same,GFP ratio to DMSO,YPL150W,0.959 (inactive)
same,GFP ratio to DMSO,YCR005C,4.96
same,GFP ratio to DMSO,YMR251W-A,1.64
same,GFP ratio to DMSO,YOR371C,0.944 (inactive)
same,GFP ratio to DMSO,YDR399W,0.957 (inactive)
same,GFP ratio to DMSO,YEL007W,0.993 (inactive)
same,GFP ratio to DMSO,YGL062W,2.1
same,GFP ratio to DMSO,YGR019W,1.42 (inactive)
same,GFP ratio to DMSO,YOR063W,0.919 (inactive)
same,GFP ratio to DMSO,YPL265W,1.93
same,GFP ratio to DMSO,YDL205C,0.958 (inactive)
same,GFP ratio to DMSO,YPL111W,2.48
same,GFP ratio to DMSO,YKR093W,4.31
same,GFP ratio to DMSO,YDR382W,0.981 (inactive)
same,GFP ratio to DMSO,YGL147C,0.799 (inactive)
same,GFP ratio to DMSO,YKR039W,4.91
same,GFP ratio to DMSO,YHR018C,1.14 (inactive)
same,GFP ratio to DMSO,YLR237W,0.775 (inactive)
same,GFP ratio to DMSO,YHR141C,0.925 (inactive)
same,GFP ratio to DMSO,YPR145W,1.98
same,GFP ratio to DMSO,YAL060W,2.27
same,GFP ratio to DMSO,YJL144W,1.39 (inactive)
same,GFP ratio to DMSO,YPR184W,1.61
same,GFP ratio to DMSO,YBL087C,0.567
same,GFP ratio to DMSO,YFR031C-A,0.845 (inactive)
same,GFP ratio to DMSO,YDL204W,1.33 (inactive)
same,GFP ratio to DMSO,YLR142W,0.857 (inactive)
same,GFP ratio to DMSO,YPL131W,0.93 (inactive)
same,GFP ratio to DMSO,YKR094C,0.898 (inactive)
same,GFP ratio to DMSO,YDR453C,1.5 (inactive)
same,GFP ratio to DMSO,YGL036W,0.845 (inactive)
same,GFP ratio to DMSO,YMR307W,0.845 (inactive)
same,GFP ratio to DMSO,YGR034W,0.814 (inactive)
same,GFP ratio to DMSO,YMR105C,1.72
same,GFP ratio to DMSO,YBR139W,1.12 (inactive)
same,GFP ratio to DMSO,YOR136W,1.43 (inactive)
same,GFP ratio to DMSO,YCR002C,0.939 (inactive)
same,GFP ratio to DMSO,YHL021C,1.99
same,GFP ratio to DMSO,YGR121C,1.38 (inactive)
same,GFP ratio to DMSO,YLL026W,1.75
same,GFP ratio to DMSO,YIL052C,0.769 (inactive)
same,GFP ratio to DMSO,YGL135W,0.899 (inactive)
same,GFP ratio to DMSO,YOR038C,1.15 (inactive)
same,GFP ratio to DMSO,YHR087W,1.64
same,GFP ratio to DMSO,YER156C,1.08 (inactive)
same,GFP ratio to DMSO,YKL086W,1.17 (inactive)
same,GFP ratio to DMSO,YNL142W,9.4
same,GFP ratio to DMSO,YLR185W,0.893 (inactive)
same,GFP ratio to DMSO,YML063W,0.897 (inactive)
same,GFP ratio to DMSO,YNL068C,1.09 (inactive)
same,GFP ratio to DMSO,YAL061W,1.57
same,GFP ratio to DMSO,YBR072W,1.53
same,GFP ratio to DMSO,YEL063C,1.23 (inactive)
same,GFP ratio to DMSO,YBR248C,1.03 (inactive)
same,GFP ratio to DMSO,YNL112W,0.894 (inactive)
same,GFP ratio to DMSO,YLR058C,1.02 (inactive)
same,GFP ratio to DMSO,YPL220W,1.04 (inactive)
same,GFP ratio to DMSO,YEL071W,2.83
same,GFP ratio to DMSO,YNR001C,1.57
same,GFP ratio to DMSO,YJR148W,3.13
same,GFP ratio to DMSO,YGR088W,1.71
same,GFP ratio to DMSO,YHR203C,0.857 (inactive)
same,GFP ratio to DMSO,YNL214W,0.945 (inactive)
same,GFP ratio to DMSO,[1],1.69
same,GFP ratio to DMSO,YML034W,0.944 (inactive)
same,GFP ratio to DMSO,YER117W,0.434
same,GFP ratio to DMSO,YOR173W,1.45 (inactive)
same,GFP ratio to DMSO,YML026C,0.557
same,GFP ratio to DMSO,YOR375C,1.83
same,GFP ratio to DMSO,YLL039C,1.49 (inactive)
same,GFP ratio to DMSO,YML004C,1.28 (inactive)
same,GFP ratio to DMSO,YIL069C,0.764 (inactive)
same,GFP ratio to DMSO,YLR109W,1.39 (inactive)
same,GFP ratio to DMSO,YOL052C-A,2.48
same,GFP ratio to DMSO,YIL066C,1.04 (inactive)
same,GFP ratio to DMSO,YLR287C-A,0.753 (inactive)
same,GFP ratio to DMSO,YML128C,1.68
same,GFP ratio to DMSO,YPR132W,0.841 (inactive)
same,GFP ratio to DMSO,YJL056C,0.886 (inactive)
same,GFP ratio to DMSO,YEL060C,1.88
same,GFP ratio to DMSO,YFR053C,1.46 (inactive)
same,GFP ratio to DMSO,YDL130W,0.917 (inactive)
